One data set is described as follows: physchem. To be noted: octanol/phosphate buffered saline, pH 7.4.
Data set [1] can be described thus: in vitro. Conditions: mouse, liver microsomes.
A short description of data set [2]: in vitro. Conditions: human, liver microsomes.
The nature of a further data set: in vivo. Conditions: Crl:CD(ICR), mouse, brain/plasma, po, 30 mg/kg.

Compound `C[C@]1(c2cc(NC(=O)c3cnc(OCF)cn3)ccc2F)N=C(N)SCC12CCOCC2` came in with a logD in “physchem” of 1.2. Besides, the amount remaining at 0.5 h, 0.1 µM in the data set “in vitro [1]” stood at 5%; in the data set “in vitro [2]” it was 51%.
For `C[C@]1(c2cc(NC(=O)c3cnc(OCF)cn3)ccc2F)N=C(N)SCC12CCC(F)(F)CC2`, the logD in the data set “physchem” turned out to be 2.3. The Kp in “in vivo” was 0.55. The share remaining at 0.5 h, 0.1 µM in the data set “in vitro [1]” stood at 4.5%; in “in vitro [2]”, 27%.

These data come from ChEMBL document CHEMBL4304740, “Structure-Based Design of Selective β-Site Amyloid Precursor Protein Cleaving Enzyme 1 (BACE1) Inhibitors: Targeting the Flap to Gain Selectivity over BACE2” (J Med Chem, 2019).
